Values after ≈ are worked out from the molar mass of the structure shown. Active and inactive are the calls of the source. No cut-off for these calls is given here.
How the values were obtained:
[1] = Inhibition of CLPB (unknown origin) expressed in Escherichia coli MC4100 using alpha-casein as substrate at 1 to 100 uM by spectrophotometric analysis
[2] = Inhibition of DNAK/CLPB (unknown origin) assessed as reactivation of malate dehydrogenase aggregates after 2 hrs in presence of Tween 80
[3] = Binding affinity to CLPB E276A/E678A mutant (unknown origin)-alpha-casein complex expressed in Escherichia coli MC4100 at 0.1 to 1000 uM by titrimetric analysis
[4] = Inhibition of DNAK/CLPB (unknown origin) assessed as reactivation of malate dehydrogenase aggregates after 2 hrs
[5] = Binding affinity to CLPB (unknown origin) expressed in Escherichia coli MC4100 assessed as change in melting temperature at 100 to 200 uM after 30 mins by DSF analysis in presence of ADP
[6] = Inhibition of DNAK (unknown origin) assessed as reactivation of luciferase aggregates after 2 hrs in presence of Tween 80
[7] = Binding affinity to CLPB (unknown origin) expressed in Escherichia coli MC4100 assessed as change in melting temperature at 100 to 200 uM after 30 mins by DSF analysis
[8] = Binding affinity to CLPB (unknown origin) expressed in Escherichia coli MC4100 assessed as change in melting temperature at 100 to 200 uM after 30 mins by DSF analysis in presence of ATP
[9] = Inhibition of CLPB (unknown origin) expressed in Escherichia coli MC4100 at 1 to 100 uM by spectrophotometric analysis
[10] = Binding affinity to CLPB (unknown origin) expressed in Escherichia coli MC4100 assessed as change in melting temperature at 100 to 200 uM after 30 mins by DSF analysis in presence of ATPgammaS
[11] = Inhibition of DNAK (unknown origin) assessed as reactivation of luciferase aggregates after 2 hrs
[12] = Activation of CLPB (unknown origin) expressed in Escherichia coli MC4100 using alpha-casein as substrate at 1 to 100 uM by spectrophotometric analysis
[13] = Activation of CLPB (unknown origin) expressed in Escherichia coli MC4100 at 1 to 100 uM by spectrophotometric analysis
[14] = Effect on ATPase activity of CLPB (unknown origin) expressed in Escherichia coli MC4100 at 1 to 100 uM by spectrophotometric analysis
[15] = Effect on ATPase activity of CLPB (unknown origin) expressed in Escherichia coli MC4100 using alpha-casein as substrate at 1 to 100 uM by spectrophotometric analysis
Escherichia coli [16] = assay: Antibacterial activity against CLPB-deleted Escherichia coli MC4100 assessed as reduction of CFU count at 300 uM at 37 degC after 24 hrs by two-fold dilution method in presence of paraquat; assay type: functional, organism-based
[17] = Binding affinity to CLPB E276A/E678A mutant (unknown origin) expressed in Escherichia coli MC4100 assessed as change in melting temperature by DSF analysis
Escherichia coli [18] = assay: Antibacterial activity against CLPB-deleted Escherichia coli MC4100 assessed as reduction of CFU count at 300 uM at 37 degC after 24 hrs by two-fold dilution method; assay type: functional, organism-based
Escherichia coli [19] = assay: Antibacterial activity against Escherichia coli MC4100 assessed as reduction of CFU count at 300 uM at 42 degC after 24 hrs by two-fold dilution method; assay type: functional
[20] = Inhibition of ATPase activity of CLPB (unknown origin) expressed in Escherichia coli MC4100 using 10 uM alpha-casein as substrate at 1 to 100 uM by spectrophotometric analysis
Escherichia coli [21] = assay: Antibacterial activity against TolC-deleted Escherichia coli JLS1015 at 37 to 47 degC after 7 hrs by two-fold dilution method; assay type: functional; conditions: JLS1015, 7 h
Escherichia coli [22] = assay: Antibacterial activity against Escherichia coli BL21(DE3) assessed as growth inhibition at 0.1 to 1000 uM at 37 to 47 degC after 24 hrs by two-fold dilution method in presence of paraquat; assay type: functional
[23] = Cytotoxicity against CHO cells assessed as cell viability at 40 to 100 uM after 72 hrs by tetrazolium reduction assay relative to control; assay type: cell-based, Cricetulus griseus; conditions: chinese hamster, read-out: Activity
[24] = Inhibition of ATPase activity of CLPB (unknown origin) expressed in Escherichia coli MC4100 using 20 to 100 uM alpha-casein as substrate at 1 to 100 uM by spectrophotometric analysis
[25] = Binding affinity to CLPB E276A/E678A mutant (unknown origin) expressed in Escherichia coli MC4100 at 100 uM in presence of alpha-casein by spectrofluorimetric analysis
Escherichia coli [26] = assay: Antibacterial activity against CLPB-deleted Escherichia coli MC4100 assessed as growth inhibition at 0.1 to 1000 uM at 37 to 47 degC after 24 hrs by two-fold dilution method in presence of paraquat; assay type: functional, organism-based
Escherichia coli [27] = assay: Antibacterial activity against Escherichia coli MC4100 assessed as reduction of CFU count at 300 uM at 37 degC after 24 hrs by two-fold dilution method in presence of paraquat; assay type: functional
Escherichia coli [28] = assay: Antibacterial activity against Escherichia coli MC4100 assessed as growth inhibition at 37 degC after 24 hrs by two-fold dilution method; assay type: functional, organism-based
Escherichia coli [29] = assay: Antibacterial activity against Escherichia coli MC4100 assessed as growth inhibition at 0.1 to 1000 uM at 37 to 47 degC after 24 hrs by two-fold dilution method in presence of paraquat; assay type: functional, organism-based
Escherichia coli [30] = assay: Antibacterial activity against Escherichia coli BL21(DE3) assessed as growth inhibition at 42 degC after 24 hrs by two-fold dilution method in presence of paraquat; assay type: functional
[31] = Binding affinity to CLPB (unknown origin) expressed in Escherichia coli MC4100 up to 400 seconds by surface plasmon resonance analysis
Escherichia coli [32] = assay: Antibacterial activity against Escherichia coli MC4100 assessed as growth inhibition at 42 degC after 24 hrs by two-fold dilution method in presence of paraquat; assay type: functional; conditions: MC4100, 24 h
Escherichia coli [33] = assay: Antibacterial activity against CLPB-deleted Escherichia coli MC4100 assessed as growth inhibition at 37 degC after 24 hrs by two-fold dilution method; assay type: functional, organism-based
[34] = Cytotoxicity against human HeLa cells assessed as cell viability at 40 to 100 uM after 72 hrs by tetrazolium reduction assay relative to control; assay type: cell-based; conditions: read-out: Activity

| SMILES | IC50 [2] | IC50 [4] | ΔTm [5] | IC50 [6] | ΔTm [7] | ΔTm [8] | ΔTm [10] | IC50 [11] | Activity [14] | Activity [15] | also measured |
| --- | --- | --- | --- | --- | --- | --- | --- | --- | --- | --- | --- |
| CCn1c(=O)c(C(=O)Nc2cccc(O)c2)c(O)c2ccccc21 | 40 µM | 65 µM | 1.5 °C | > 100 µM | -0.8 °C | 2.2 °C | -0.8 °C | > 100 µM |  |  | inhibition [1]: Active; Activity [3]: inactive; inhibition [9]: Active |
| C(=C\C=C\Nc1ccccc1)/C=C/Nc1ccccc1 |  | > 100 µM | 12.3 °C |  | 17.5 °C | 11.9 °C | 13.3 °C | 100 µM |  |  | Activity [12]: Active; Activity [13]: Active |
| O=C(Nc1cccc([N+](=O)[O-])c1)c1sc2cccc(Cl)c2c1Cl |  | 90 µM | 5.2 °C |  | 0.8 °C | 1.8 °C | 4.2 °C | > 100 µM | inactive | inactive |  |
| CC(C)[C@H](C(=O)O)N1C(=O)/C(=C2/C(=O)Nc3ccc(Br)cc32)SC1=S |  | > 100 µM | 19.9 °C |  | 24.2 °C | 22.1 °C | 19.3 °C |  | inactive | inactive |  |
| O=C1Nc2ccc(Br)cc2/C1=C1/SC(=O)N(c2ccccc2)C1=O | 15 µM | 30 µM | -0.7 °C | 50 µM | 18.1 °C | -0.2 °C | 14.6 °C | 85 µM |  |  | Activity [12]: Active; Activity [13]: Active |
| Cc1c(Cl)c([N+](=O)[O-])nn1CC(=O)Nc1cc(Oc2ccc(Cl)cc2Cl)cc([N+](=O)[O-])c1 |  | > 100 µM | 0.7 °C |  | 14.3 °C | 2 °C |  | > 100 µM | inactive | inactive |  |
| O=C(Nc1ccccc1)OCCSC(=O)Nc1ccc(Cl)c(Cl)c1 | 15 µM | 20 µM | 0.8 °C | > 100 µM | 1.5 °C | 0.8 °C | 2 °C | > 100 µM |  |  | Activity [3]: inactive; Activity (Escherichia coli [16]): inactive; Kd [17]: 23 µM; Activity (Escherichia coli [18]): inactive; log10cfu (Escherichia coli [19]): 2; inhibition [20]: Active; MIC (Escherichia coli [21]): 5 µM (≈ 1.93 µg/mL); growth inhibition (GI) (Escherichia coli [22]): Active; viability at 72 h, up to 100 µM [23]: 50%; inhibition [24]: inactive; Activity [25]: Active; growth inhibition (GI) (Escherichia coli [26]): inactive; log10cfu (Escherichia coli [27]): 2; growth inhibition (GI) (Escherichia coli [28]): Active; growth inhibition (GI) (Escherichia coli [29]): Active; MIC (Escherichia coli [30]): 60 µM; Kd [31]: 19 µM; MIC (Escherichia coli [32]): 60 µM; growth inhibition (GI) (Escherichia coli [33]): Active; viability at 72 h, up to 100 µM [34]: 50% |

— ChEMBL document CHEMBL2424520, “Screening and evaluation of small organic molecules as ClpB inhibitors and potential antimicrobials” (J Med Chem, 2013)
